Results on 25 compounds are retold here after PubChem BioAssay (NCI).

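Step 1: Grow cells in 96-well plates. Step 2: Expose to compound for 48 hours at 5 concentrations. Step 3: Interpolate endpoints linearly; if unreached, use highest concentration. The concentration for 50% growth inhibition is given as GI50. The concentration for full growth arrest is given as TGI.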 Where a SMILES comes first, the peptide text is derived from it. The star is where a group is joined. Boc = CC(C)(C)OC(=O)*

For one experiment, the system named is T-47D breast. Nature of the experiment: growth of human tumour cells (NCI), 48 h.
`c1ccc2sc(SCSc3nc4ccccc4s3)nc2c1` displayed a TGI greater than 100 µM.
`O=c1oc(-c2ccc(O)c(O)c2)cc2cccc(O)c12` yielded a TGI of 9.46 µM.
As to `COc1cc2c(cc1-c1c(C)noc1C)cc(C)c(=O)n2Cc1ccccn1`, the GI50 was 0.456 µM and the TGI was greater than 100 µM.
With `CCOC(=O)c1c(-c2ccc(OC)cc2)c(C#N)c(=S)n(C2OC(COC(C)=O)C(OC(C)=O)C(OC(C)=O)C2OC(C)=O)c1C` (stereo not given), the TGI is greater than 100 µM.
`C1=CC2=CC=CC3c4nc5ccc6ccccc6c5nc4C(=C1)C23` (stereo not given) had a TGI greater than 100 µM.
For the compound `O=c1cc(N=P(c2ccccc2)(c2ccccc2)c2ccccc2)n(-c2ccccc2)c(=O)n1-c1ccccc1`, the TGI was 55.2 µM.
For the compound `O=C(NCCCN(CCCCN(CCCNC(=O)C(F)(F)F)Cc1ccccc1)Cc1ccccc1)C(F)(F)F`, the TGI was 40.6 µM.
Same read-out and setting: then `O=C(CCCN1CCC2(CC1)CC(=O)N(N1CCOCC1)C2=O)c1ccccc1`, with greater than 100 µM; and `COc1ccc(C(OCC2OC(n3cc(C)c(=O)[nH]c3=O)CC2n2cc(Cn3cc(F)c(=O)[nH]c3=O)nn2)(c2ccccc2)c2ccccc2)cc1` (stereo not given), with 24.4 µM; and `C=CCn1c(=O)ccn(COCCO)c1=O`, with greater than 100 µM.
`Oc1ccccc1/C=N/c1nc2cc3sc(/N=C/c4ccccc4O)nc3cc2s1` came in with a TGI greater than 100 µM.
Compound `CCCCC1c2c([nH]c3ccccc23)C2C(=O)N(c3ccc(OC)cc3)C(=O)C2C1CCC` (stereo not given) yielded a TGI greater than 10 µM.
Turning to `C(=N\NC1=NCCCN1)/c1ccc2ccccc2c1`, the TGI turned out to be 33 µM.
Turning to `CCOC(=N)n1c(=O)n(C2=NCCN2)c2ccccc21`, the TGI was greater than 100 µM.
Turning to `O=C(NCCN1CCOCC1)c1ccc2cc(C(=O)N3CC(CCl)c4ccc([N+](=O)[O-])cc43)[nH]c2c1` (stereo not given), the TGI is greater than 100 µM.
The compound `Cc1csc(-c2cn(C)c3c2C(=O)C(N)=CC3=O)n1` registered a TGI greater than 100 µM.
`Nc1c(-c2cccc3ccccc23)c2ccc([N+](=O)[O-])cc2c(=O)n1-c1nc2ccccc2s1`: the TGI is greater than 100 µM.
`CC1CC[C@@]2(OC1)OC1C[C@H]3[C@@H]4CC[C@H]5CC(OC6OC(CO)C(OC7OC(CO)C(O)C(O)C7OC7OC(CO)C(O)C(O)C7O)C(O)C6O)CCC5(C)[C@H]4CCC3(C)C1[C@@H]2C` (stereo not given in full) gave a TGI of 8.51 µM.
Regarding `C/C=C/C=C/c1nc(C#N)c(N)o1`, the TGI was greater than 100 µM.
On the same count and under the same terms, for `O=c1c2ccccc2nc2[nH][nH]c(=S)n12` the value was greater than 100 µM; for `CC(C)(C)OC(=O)NCC(=O)NCC(=O)NCC(=O)NCC(=O)O` (Boc-GGGG-OH), greater than 100 µM; for `COc1ccc(CC(O)CN2CCOCC2)cc1` (stereo not given), greater than 100 µM.
For `CC(C)COP(=O)(OCC(C)C)C(NS(=O)(=O)c1ccccc1)(C(F)(F)F)C(F)(F)F`, the TGI came to 9.34 µM.
Consider `CN(C)CCCN1C(=S)N(CCCN(C)C)c2c3cc(O)ccc3nc3c([N+](=O)[O-])ccc1c23`, for which the TGI is 9.48 µM.
On to `COc1cc(C2SCC(=O)N2c2ccc(NC(=O)c3ccc(N4C(=O)CSC4c4cc(OC)c(OC)c(OC)c4)cc3)cc2)cc(OC)c1OC` (stereo not given), for which the TGI is greater than 100 µM.

Another experiment concerns OVCAR-5 ovarian. Nature of the experiment: growth of human tumour cells (NCI), 48 h.
Regarding `c1ccc2sc(SCSc3nc4ccccc4s3)nc2c1`, the TGI is greater than 100 µM.
Consider `O=c1oc(-c2ccc(O)c(O)c2)cc2cccc(O)c12`, for which the TGI stood at 86.5 µM.
As for `COc1cc2c(cc1-c1c(C)noc1C)cc(C)c(=O)n2Cc1ccccn1`, the GI50 is 2.78 µM and the TGI is greater than 100 µM.
The compound `CCOC(=O)c1c(-c2ccc(OC)cc2)c(C#N)c(=S)n(C2OC(COC(C)=O)C(OC(C)=O)C(OC(C)=O)C2OC(C)=O)c1C` (stereo not given) registered a TGI greater than 100 µM.
On the same count and under the same terms, then `C1=CC2=CC=CC3c4nc5ccc6ccccc6c5nc4C(=C1)C23` (stereo not given), with greater than 100 µM; and `O=c1cc(N=P(c2ccccc2)(c2ccccc2)c2ccccc2)n(-c2ccccc2)c(=O)n1-c1ccccc1`, with greater than 100 µM; and `O=C(NCCCN(CCCCN(CCCNC(=O)C(F)(F)F)Cc1ccccc1)Cc1ccccc1)C(F)(F)F`, with 40.8 µM.
On to `O=C(CCCN1CCC2(CC1)CC(=O)N(N1CCOCC1)C2=O)c1ccccc1`, for which the TGI was greater than 100 µM.
In turn, `COc1ccc(C(OCC2OC(n3cc(C)c(=O)[nH]c3=O)CC2n2cc(Cn3cc(F)c(=O)[nH]c3=O)nn2)(c2ccccc2)c2ccccc2)cc1` (stereo not given) yielded a TGI of 35.5 µM.
Compound `C=CCn1c(=O)ccn(COCCO)c1=O` displayed a TGI greater than 100 µM.
As to `Oc1ccccc1/C=N/c1nc2cc3sc(/N=C/c4ccccc4O)nc3cc2s1`, the TGI is greater than 100 µM.
Compound `CCCCC1c2c([nH]c3ccccc23)C2C(=O)N(c3ccc(OC)cc3)C(=O)C2C1CCC` (stereo not given) showed a TGI greater than 10 µM.
`C(=N\NC1=NCCCN1)/c1ccc2ccccc2c1` came in with a TGI of 21.8 µM.
Compound `CCOC(=N)n1c(=O)n(C2=NCCN2)c2ccccc21` gave a TGI greater than 100 µM.
Turning to `O=C(NCCN1CCOCC1)c1ccc2cc(C(=O)N3CC(CCl)c4ccc([N+](=O)[O-])cc43)[nH]c2c1` (stereo not given), the TGI is greater than 100 µM.
The same measure, in the same setting: then `Cc1csc(-c2cn(C)c3c2C(=O)C(N)=CC3=O)n1`, with greater than 100 µM; and `Nc1c(-c2cccc3ccccc23)c2ccc([N+](=O)[O-])cc2c(=O)n1-c1nc2ccccc2s1`, with greater than 41.2 µM; and `CC1CC[C@@]2(OC1)OC1C[C@H]3[C@@H]4CC[C@H]5CC(OC6OC(CO)C(OC7OC(CO)C(O)C(O)C7OC7OC(CO)C(O)C(O)C7O)C(O)C6O)CCC5(C)[C@H]4CCC3(C)C1[C@@H]2C` (stereo not given in full), with 8.08 µM.
In turn, `C/C=C/C=C/c1nc(C#N)c(N)o1` returned a TGI greater than 100 µM.
Compound `O=c1c2ccccc2nc2[nH][nH]c(=S)n12` came in with a TGI greater than 100 µM.
`CC(C)(C)OC(=O)NCC(=O)NCC(=O)NCC(=O)NCC(=O)O` (Boc-GGGG-OH): the TGI was greater than 100 µM.
Still for that read-out and setting: then `COc1ccc(CC(O)CN2CCOCC2)cc1` (stereo not given), with greater than 100 µM; and `CC(C)COP(=O)(OCC(C)C)C(NS(=O)(=O)c1ccccc1)(C(F)(F)F)C(F)(F)F`, with 38.1 µM; and `CN(C)CCCN1C(=S)N(CCCN(C)C)c2c3cc(O)ccc3nc3c([N+](=O)[O-])ccc1c23`, with 28.5 µM.
`COc1cc(C2SCC(=O)N2c2ccc(NC(=O)c3ccc(N4C(=O)CSC4c4cc(OC)c(OC)c(OC)c4)cc3)cc2)cc(OC)c1OC` (stereo not given) gave a TGI greater than 100 µM.

Another experiment concerns SW-620 colon. Nature of the experiment: growth of human tumour cells (NCI), 48 h.
The compound `c1ccc2sc(SCSc3nc4ccccc4s3)nc2c1` gave a TGI greater than 100 µM.
As to `O=c1oc(-c2ccc(O)c(O)c2)cc2cccc(O)c12`, the TGI turned out to be 78.2 µM.
For `COc1cc2c(cc1-c1c(C)noc1C)cc(C)c(=O)n2Cc1ccccn1`, the GI50 is 2.59 µM and the TGI is greater than 100 µM.
Compound `CCOC(=O)c1c(-c2ccc(OC)cc2)c(C#N)c(=S)n(C2OC(COC(C)=O)C(OC(C)=O)C(OC(C)=O)C2OC(C)=O)c1C` (stereo not given) came in with a TGI greater than 100 µM.
On to `C1=CC2=CC=CC3c4nc5ccc6ccccc6c5nc4C(=C1)C23` (stereo not given), for which the TGI is greater than 100 µM.
In turn, `O=c1cc(N=P(c2ccccc2)(c2ccccc2)c2ccccc2)n(-c2ccccc2)c(=O)n1-c1ccccc1` came in with a TGI greater than 100 µM.
Same read-out and setting: then `O=C(NCCCN(CCCCN(CCCNC(=O)C(F)(F)F)Cc1ccccc1)Cc1ccccc1)C(F)(F)F`, with 34.2 µM; and `O=C(CCCN1CCC2(CC1)CC(=O)N(N1CCOCC1)C2=O)c1ccccc1`, with greater than 100 µM; and `COc1ccc(C(OCC2OC(n3cc(C)c(=O)[nH]c3=O)CC2n2cc(Cn3cc(F)c(=O)[nH]c3=O)nn2)(c2ccccc2)c2ccccc2)cc1` (stereo not given), with 21.4 µM.
On the same count and under the same terms, then `C=CCn1c(=O)ccn(COCCO)c1=O`, with greater than 100 µM.
Turning to `Oc1ccccc1/C=N/c1nc2cc3sc(/N=C/c4ccccc4O)nc3cc2s1`, the TGI was greater than 100 µM.
In turn, `CCCCC1c2c([nH]c3ccccc23)C2C(=O)N(c3ccc(OC)cc3)C(=O)C2C1CCC` (stereo not given) displayed a TGI greater than 10 µM.
